Data set [1] can be described thus: PMB concentration in epithelial lining fluid (BAL, urea dilution method). The class given is in vivo. The settings on record: human, iv, 50 mg; for Kp at 96 h: epithelial lining fluid / plasma, read-out: ELF/plasma ratio; for level at 96 h: epithelial lining fluid; for Cmax: plasma, patients with BAL samples. As to the method: BAL sample collection was possible for 15 of the patients. If the patients’ respiratory status permitted, one BAL was performed immediately after the seventh dose (on day 4 of treatment). Four 20 mL aliquots of sterile 0.9% normal saline solution were instilled, immediately aspirated, and placed on ice. The aspirate from the first 20 mL instillation was collected and discarded. The aspirates recovered from the second, third, and fourth instillations were pooled.
Blood and BAL samples were centrifuged for 10 min (3000 rpm) and immediately stored at −80 °C until analysis.
PMB concentrations in the samples were quantified by monitoring the total concentrations of polymyxin B1 (PB1), polymyxin B2 (PB2), polymyxin B3 (PB3), and isoleucine polymyxin B1 (I-PB1) via a validated ultraperformance liquid chromatography–tandem mass spectrometry (UPLC-MS/MS) assay. The standard substances, including PB1 (CAS P037), PB2 (CAS P037), PB3 (CAS P040), and I-PB1 (CAS P038), were purchased by TOKU-E Company (>99% pure, Bellingham, WA, USA). ACQUITY UPLC system, Quattro PremierXE triple quadrupole mass spectrometer, electrospray isonizaiton source (ESI), and Masslynx 4.1 data processing software were used in this study (Waters Company, Milford, MA, USA). An Acquity UPLC BEH C18 column (50 mm × 2.1 mm internal diameter, 1.8 μm) purchased from Waters (Milford, MA, USA) was used. The mobile phase comprised a 0.2% formic acid aqueous solution and a 0.2% formic acid acetonitrile solution, and the flow rate was 0.3 mL/min. Mass spectrometric detection was performed in positive electrospray ionization (ESI+) mode with multiple reaction monitoring (MRM). The optimized transitions were set as follows: m/z 602.7→101.0 for PB1 and I-PB1, m/z 595.7→100.9 for PB2 and PB3, and […] for the internal standard norvancomycin. Plasma and BAL supernatant was aliquoted into microcentrifuge tubes and sequentially treated with 20 μL norvancomycin or 200 μL 5% trichloroacetic acid. 1 μL plasma and 2 μL BAL of supernatant were collected separately for the detection of PMB concentrations.
The ELF recovery rate was calculated via the urea dilution method, as reported in previous studies. The concentration of urea was analysed with a commercial kit purchased from Beijing Solarbio Science & Technology Co., Ltd., Beijing, China (BC1535). The concentration of PMB in the ELF (ELF[PMB]) was measured by using urea as an endogenous marker of ELF dilution via the following equation: ELF[PMB] = BAL[PMB] × (blood urea/BAL[Urea]), where BAL[PMB] is the concentration of PMB in BAL and BAL[Urea] is the concentration of urea in BAL.

Data set [2] has as its system XDR-GN bacterial nosocomial pneumonia. Nature of the data set: Clinical efficacy (treatment success) of PMB. It is filed as in vivo, human. As to conditions: 27 enrolled patients; iv 100 mg loading, 50 mg q12h. From the text:
The decision to administer PMB was made by the attending physicians. Patients with conditions that could alter the PK of PMB, who had rapidly declining or fluctuating renal function (serum creatinine ± 50% since the start of therapy, who could affect the removal of drugs from the body), who were pregnant (hormone levels, increased blood volume, and other factors affecting drug processes), who had severe burns/head/spinal cord injury (high metabolic status, fluid redistribution, reduced plasma protein levels, and other factors affecting drug processes), who had cystic fibrosis (decreased distribution of PMB in lungs), or who were severely under- or overweight (±40% of ideal body weight, changes of fat volume, and body surface area affecting drug processes) were excluded. The study was approved by the Ethics Committees of Peking Union Medical College Hospital and the Declaration of Helsinki. Written informed consent was obtained from all patients or their legal representatives.
The primary PD response was evaluated by PK/PD indices. […] The secondary PD response was evaluated by clinical parameters. […] The percentage of patients who achieved the PK/PD targets or treatment success was calculated. Variables potentially related to clinical efficacy were assessed. […] The optimal cutoff point for the PK/PD indices was calculated with the Youden index.

A short description of the next data set: PK/PD targets attainment. It is filed as in vivo, human. The method, then: The primary PD response was evaluated by PK/PD indices. An AUCss,0–24h of 50–100 mg·hour/L or a Css,avg of 2–4 mg/L was used as the PK/PD targets for PMB. The secondary PD response was evaluated by clinical parameters. An achievement of the treatment success at the end of treatment was defined by either (1) physicians’ judgment of improvement in signs and symptoms (reasonable compromise on the basis of survival, stable, or improved haemodynamics and oxygenation index and improved chemical and physiological indices of infection) or (2) microbiological elimination. […] The percentage of patients who achieved the PK/PD targets or treatment success was calculated. Variables potentially related to clinical efficacy were assessed. Receiver operating characteristic (ROC) curves were drawn to investigate and compare different indices as predictors of clinical efficacy. The optimal cutoff point for the PK/PD indices was calculated with the Youden index.

Like-named read-outs stand apart in the source and are kept apart here. Where a SMILES comes first, the peptide text is derived from it. Bridges are numbered along the chain shown (N, C = ends). [ ]: non-standard residue; d: D form. The star is where a group is joined. X1 = CC[C@H](C)CCCCC(=O)*; Dab = NCC[C@H](N)C(=O)O

As a reminder, the Cmax is the highest concentration seen after dosing. Consider `CC[C@H](C)CCCCC(=O)N[C@@H](CCN)C(=O)N[C@H](C(=O)N[C@@H](CCN)C(=O)N[C@H]1CCNC(=O)[C@H]([C@@H](C)O)NC(=O)[C@H](CCN)NC(=O)[C@H](CCN)NC(=O)[C@H](CC(C)C)NC(=O)[C@@H](Cc2ccccc2)NC(=O)[C@H](CCN)NC1=O)[C@@H](C)O` [PMB, polymyxin B] (X1-[Dab]T[Dab][Dab][Dab][dF]L[Dab][Dab]T; lactam 4-C), for which the Kp at 96 h in data set [1] (treatment failure group, median [IQR]) stood at 0.088; in data set [1] (treatment success group, median [IQR]), 0.17. The level at 96 h came out at 900 ng/mL in data set [1] (BAL immediately after the seventh dose (day 4), urea dilution method, median and IQR, read-out: ELF concentration); 980 ng/mL in data set [1] (treatment failure group, median [IQR], read-out: PMB concentration in the ELF); 840 ng/mL in data set [1] (treatment success group, median [IQR], read-out: PMB concentration in the ELF). The Cmax in data set [1] (median and IQR, read-out: plasma Cmax) turned out to be 7460 ng/mL; in data set [1] (treatment failure group, median [IQR], read-out: Cmax), 11100 ng/mL; in data set [1] (treatment success group, median [IQR], read-out: Cmax), 5940 ng/mL. For the same compound, the “treatment success (response rate)” value in data set [2] worked out at 81.48%. Besides, the “treatment success among patients who reached the target Css,avg of 2–4 mg/L” value in the data set “PK/PD targets attainment” (9 patients) is recorded as 77.78%. For the same compound, the “treatment success among patients who reached the target AUCss,0–24h of 50–100” value in the data set “PK/PD targets attainment” (13 patients) came to 76.95%. For the same compound, the “treatment success among patients who exceeded the target AUCss,0–24h” value in the data set “PK/PD targets attainment” (in vivo) was found to be 92.31%.

For the origin of these results see PMC12030314, “Biomarker-Driven Pharmacokinetics and Efficacy of Polymyxin B in Critically Ill Patients with XDR-GN Pneumonia” (Pharmaceuticals, 2025).
